Measured values reported in PMC7725785, “TRIB3 promotes MYC-associated lymphoma development through suppression of UBE3B-mediated MYC degradation” (Nature Communications, 2020).
Where a SMILES comes first, the peptide text is derived from it. [ ]: non-standard residue; d: D form.

Tests used:
TRIB3 protein = molecular target: T1, TRIB3 protein (Homo sapiens, UniProt Q96RU7); assay: SPR kinetic interaction of α-helical peptides (CM1-CM4) with TRIB3; assay type: binding
T1 construct: GST; purchased Sinobiological Inc. 10731-H09B
T1 sequence (Q96RU7 1-358): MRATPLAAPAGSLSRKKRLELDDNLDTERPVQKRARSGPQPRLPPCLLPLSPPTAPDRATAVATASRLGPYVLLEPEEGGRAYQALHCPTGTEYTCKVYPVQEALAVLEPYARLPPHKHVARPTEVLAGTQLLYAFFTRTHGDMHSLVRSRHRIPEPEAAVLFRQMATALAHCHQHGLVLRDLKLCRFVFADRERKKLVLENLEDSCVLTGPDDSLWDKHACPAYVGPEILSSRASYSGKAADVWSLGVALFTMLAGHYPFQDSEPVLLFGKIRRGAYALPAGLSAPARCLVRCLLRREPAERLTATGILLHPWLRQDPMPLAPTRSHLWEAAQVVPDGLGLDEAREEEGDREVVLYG
Description: (§1) Binding kinetics between MYC and UBE3B, TRIB3 and the indicated α helical peptides, MAX and the indicated α helical peptides, or MYC and MAX were analyzed using a BIAcore T200 instrument (GE Healthcare, CA, USA) as described previously. Briefly, binding reactions were performed in HBS-EP buffer (GE Healthcare) at pH 7.4. TRIB3/MYC/MAX protein was coated on the flow cell of a CM5 sensor chip by direct immobilization. Another flow cell, not coated with an immobilized protein, was used to evaluate nonspecific binding. The binding analyses were performed at a flow rate of 25 μl/min at 25 °C. A total of 0–200 nM peptide or 0–500 nM TRIB3 protein was passed over the surface of the sensor chip. The association rate constant (Ka) and the dissociation rate constant (Kd) were calculated according to the BIA evaluation software. The dissociation constant (KD) was determined by Kd/Ka.

MAX protein = assay: SPR kinetic interaction of α-helical peptides (CM1-CM4) with MAX; assay type: binding; conditions: result in words
Description: as §1

TRIB3 and MYC = assay: SPR kinetic interaction of TRIB3 and MYC proteins with or without CM4; assay type: binding; conditions: in vitro, result in words
Description: as §1

MAX and MYC = assay: SPR kinetic interaction of MAX and MYC proteins with indicated peptides (CM1-CM4); assay type: binding; conditions: result in words
Description: as §1

[1] = tested on: MYC polyubiquitination by UBE3B; assay: In vitro ubiquitination assay of MYC (UBE3B, UBCH3); assay type: biochemical; conditions: result in words
Description: In vitro ubiquitination was performed according to the protocol provided with the Ubiquitination Kit (UW9920, BioMol) with some modifications. Briefly, MYC-His, UBE3B-His, UBE3B-(R346Q)-His, UBE3B-(C1036A)-His, and UBE3B-C-His were expressed in free-style 293 cells and purified by a Ni2+-NTA resin (GE). The assays were carried out at 37 °C in a 50-μl reaction mixture containing 20 U/ml inorganic pyrophosphatase (Sigma Aldrich), 5 mM dithiothreitol, 5 mM Mg-ATP, 100 nM E1, […], […], […], and […]. […] To obtain accurate results, the PAGE gel was run for a relatively long time until protein bands smaller than 40 kDa ran off the bottom line of the gel as judged by the protein molecular weight marker. Then, the protein was transferred to a polyvinylidene difluoride membrane (PVDF). To reduce the background noise, an anti-MYC antibody (Cell Signaling Technology, 1:1000) was used to detect MYC polyubiquitination via western blot analysis instead of the HRP-Streptavidin detection system recommended by the kit for the detection of biotinylated ubiquitin.

MYC and UBE3B = assay: In vitro coimmunoprecipitation of purified MYC, UBE3B and TRIB3 with or without CM4; assay type: binding; conditions: purified His-MYC, His-UBE3B and GST-TRIB3 with or without CM4; result in words
Description: Co-IP experiments were performed as described in the section of immunoprecipitation.

MYC and MAX = assay: Duolink PLA of MYC and MAX colocalization in Raji cells; assay type: cell-based, human; conditions: peptide 4 µM 12 hr, MG132 20 μM 6 hr, result in words
Description: A total of 1 × 10^6 cells were seeded overnight in a six-well plate. The next day, cells were collected, fixed in 4% paraformaldehyde solution, permeabilized with 0.5% Triton-X100, blocked with Duolink® Blocking Solution, and probed with antibodies directed against MYC (R&D, NB600-302, 1:100), TRIB3 (Novus, H00057761-M03, 1:100), UBE3B (Invitrogen, PA5-59390, 1:100), and MAX (Cell Signaling Technology, #4739, 1:100). The cells were then treated with the Duolink In Situ Red Starter Mouse/Rabbit kit (Sigma Aldrich, DUO92101-1KT) according to the manufacturer’s instructions. Images were captured with an OLYMPUS confocal microscope.

Q: Which Kd (TRIB3 protein; BIAcore T200, HBS-EP pH 7.4, 25 °C, printed in Fig. 6a) does the source give for `CC(C)C[C@@H](NC(=O)[C@@H](CCC(N)=O)NC(=O)[C@@H](CCC(=O)O)NC(=O)[C@@H](CC(C)C)NC(=O)[C@@H](CCCCN)NC(=O)[C@@H](Cc1c[nH]cn1)NC(=O)[C@@H](CCCCN)NC(=O)[C@@H](CC(C)C)NC(=O)[C@@H](CCC(N)=O)NC(=O)[C@@H](CCC(=O)O)NC(=O)[C@@H](CCCNC(=N)N)NC(=O)[C@@H](CCCNC(=N)N)NC(=O)[C@H](N)CCCCN)C(=O)N[C@H](CCCNC(=N)N)C(=O)O` [CM4] (H-[dK][dR][dR][dE][dQ][dL][dK][dH][dK][dL][dE][dQ][dL][dR]-OH; N-terminus and C-terminus assumed) here?
A: The Kd was 76.4 nM.

Q: And the kon (TRIB3 protein; BIAcore T200, HBS-EP pH 7.4, 25 °C, printed in Fig. 6a, read-out: ka)?
A: Its kon is 1.01e+06 M⁻¹ s⁻¹.

Q: What about the “binding affinity for TRIB3” value (TRIB3 protein; result in words) of the same compound?
A: The value was “high binding affinity”.

Q: What about the “ability to bind MAX” value (MAX protein) of the same compound?
A: The value was “not”.

Q: What about the “effect on the binding affinity of TRIB3 and MYC” value (TRIB3 and MYC) of the same compound?
A: The value was “decreased the binding affinity of TRIB3 and MYC”.

Q: What about the “effect on the binding of MYC and MAX” value (MAX and MYC) of the same compound?
A: Its value is “not”.

Q: And the “polyubiquitination of MYC in vitro” value [1]?
A: Its value is “restored the polyubiquitination of MYC”.

Q: What about the “binding of MYC and UBE3B in vitro” value (MYC and UBE3B) of the same compound?
A: The value was “increased the binding of MYC and UBE3B”.

Q: What about the “colocalization of MYC and MAX in MG132-treated Raji cells” value (MYC and MAX) of the same compound?
A: The value was “did not affect the colocalization of MYC and MAX”.
